Results on 2 substances are retold here after patent US20070086981A1, “Delivery peptides, their constructs with active agents and use” (priority 2003, published 2007).

The test system of this experiment is human skin. Kind of experiment: Clinical study with a cream for skincare against skin aging. The settings on record: comparison of skin creams in the clinical study. It counts as in vivo, humans. On the procedure: A cream base was used having the following ingredients:
The huSOD-peptide OA 05 conjugate was produced as described in example 4.
The following compositions of skin cream were prepared for use in the clinical study:
The properties were evaluated according the following criteria: “firmness of the skin”, “reduction of superficial wrinkles”, “reduction of deeper wrinkles”, “skin regeneration”, and “appearance of young skin”. The questionnaire was filled out at least 4 weeks after starting of using the skin cream.
The application of the skin cream was done in all Groups (I to V) over 6 weeks twice a day, creaming the face and the neck in the morning and in the evening without using any other skin products. No application was discontinued in any group. The observation period (counted from the first application) was minimum 4 weeks and maximum 10 weeks.
Furthermore, a total evaluation of the different applied skin creams on a score ranging from 1 (excellent) to 6 (very poor) was performed.

In the case of KKKQKRKK (Cargo Peptide) [OA 05], the “beneficial effect on aging parameters in the human skin” value is recorded as “significantly increases the beneficial effect of SOD”.

For “SOD: Super-Oxid- Dismutase (SOD), a free radical catcher; huSOD from Jena Biosciences”, the “beneficial effect on aging parameters in the human skin” value was “has a beneficial effect on different aging parameters in the human skin”.
